Experimental data published in US12473293B2, “Pharmacologically active heterocyclic-substituted pyrazolo[1,5-a]pyrimidine derivatives” (Richter Gedeon Nyrt., priority 2020, dated 2025).
pEC50: −log10 of the molar value.

Columns and labels:
male Wistar rats = assay: Foot shock-induced ultrasonic vocalization (USV) in adult rats; assay type: in vivo; conditions: Rattus norvegicus, po, p.o., 1 h before shocking
Procedure: Foot Shock-Induced Ultrasonic Vocalization (USV) in Adult Rats
Under stressful conditions, adult rats emit 22 kHz ultrasounds that can be reduced by various pharmacological treatments (De Vry et al, Eur. J. Pharmacol. 1993, 249, 331-339; Sanchez, Eur. J. Pharmacol. 2003, 463, 133-143). […] Therefore, a foot shock-induced vocalization paradigm in adult rats was used to assess in vivo efficacy of centrally acting GABAB receptor ligands. Behavioral measurements were carried out on male Wistar rats (200-250 g, Toxicoop, Hungary or Janvier, France). Rats were housed in groups of four in plastic cages with a wire grid top in a temperature and light-controlled laboratory animal care unit (22±2° C., 12-h light/dark cycle, lights on at 6:00 AM) with ad libitum access to commercial pellet rat food and tap water. Investigations were approved by the Local Ethical Committee of Gedeon Richter Plc. and were carried out in strict compliance with the European Directive 2010/63/EU regarding the care and use of laboratory animals for experimental procedures and all efforts were made to minimize the number of animals as well as their suffering. In order to evoke emission of ultrasounds, animals were footshocked after a habituation period of 30 s (6 shocks, 1 s, 0.8 mA each, inter-shock interval 10 s) in a sound attenuated shocking chamber (Experimetria, 40×40×80 cm). […] Vocalizations were measured right after the last footshock for 10 min with a Metris Sonotrack system and the total time of vocalizations was registered. Vocalization of parallel vehicle treated animals was considered as control value and inhibition percent was calculated for each compound.
In Table 2 compounds of this invention measured in the USV assay are listed.

GABAB receptor = target: T1, GABAB receptor (Rattus norvegicus, UniProt O88871+Q9Z0U4); assay: In vitro [35S]GTPγS binding assay in rat cortical membranes; assay type: biochemical; conditions: PAM EC50, [35S]GTPγS binding, read-out: In vitro PAM potency
T1 construct: from tissue; host or cells: rat brain cortex membranes
T1 sequence (O88871 41-940): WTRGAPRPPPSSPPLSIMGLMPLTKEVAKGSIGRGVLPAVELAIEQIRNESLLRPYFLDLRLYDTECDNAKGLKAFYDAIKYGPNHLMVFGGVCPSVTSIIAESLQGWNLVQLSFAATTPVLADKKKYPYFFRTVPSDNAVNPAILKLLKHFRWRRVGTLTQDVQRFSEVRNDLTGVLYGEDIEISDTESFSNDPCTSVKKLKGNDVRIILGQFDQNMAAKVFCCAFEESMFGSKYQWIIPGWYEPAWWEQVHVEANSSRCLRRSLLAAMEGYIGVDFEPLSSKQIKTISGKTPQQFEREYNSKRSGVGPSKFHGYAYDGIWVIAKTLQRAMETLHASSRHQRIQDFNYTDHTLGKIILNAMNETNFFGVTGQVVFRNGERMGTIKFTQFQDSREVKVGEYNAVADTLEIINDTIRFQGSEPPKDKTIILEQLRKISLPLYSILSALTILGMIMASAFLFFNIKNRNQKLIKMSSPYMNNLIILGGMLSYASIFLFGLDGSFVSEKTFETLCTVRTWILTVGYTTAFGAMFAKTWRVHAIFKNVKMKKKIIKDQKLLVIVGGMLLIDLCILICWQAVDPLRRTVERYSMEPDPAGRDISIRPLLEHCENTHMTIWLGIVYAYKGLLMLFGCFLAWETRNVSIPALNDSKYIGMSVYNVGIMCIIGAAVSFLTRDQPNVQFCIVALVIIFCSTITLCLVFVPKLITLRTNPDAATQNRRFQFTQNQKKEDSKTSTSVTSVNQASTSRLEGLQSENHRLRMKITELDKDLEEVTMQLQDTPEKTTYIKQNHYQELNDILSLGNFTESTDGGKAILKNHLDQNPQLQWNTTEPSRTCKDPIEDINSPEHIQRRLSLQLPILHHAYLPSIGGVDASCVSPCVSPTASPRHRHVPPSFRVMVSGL
T1 sequence (Q9Z0U4 17-960 limits assumed): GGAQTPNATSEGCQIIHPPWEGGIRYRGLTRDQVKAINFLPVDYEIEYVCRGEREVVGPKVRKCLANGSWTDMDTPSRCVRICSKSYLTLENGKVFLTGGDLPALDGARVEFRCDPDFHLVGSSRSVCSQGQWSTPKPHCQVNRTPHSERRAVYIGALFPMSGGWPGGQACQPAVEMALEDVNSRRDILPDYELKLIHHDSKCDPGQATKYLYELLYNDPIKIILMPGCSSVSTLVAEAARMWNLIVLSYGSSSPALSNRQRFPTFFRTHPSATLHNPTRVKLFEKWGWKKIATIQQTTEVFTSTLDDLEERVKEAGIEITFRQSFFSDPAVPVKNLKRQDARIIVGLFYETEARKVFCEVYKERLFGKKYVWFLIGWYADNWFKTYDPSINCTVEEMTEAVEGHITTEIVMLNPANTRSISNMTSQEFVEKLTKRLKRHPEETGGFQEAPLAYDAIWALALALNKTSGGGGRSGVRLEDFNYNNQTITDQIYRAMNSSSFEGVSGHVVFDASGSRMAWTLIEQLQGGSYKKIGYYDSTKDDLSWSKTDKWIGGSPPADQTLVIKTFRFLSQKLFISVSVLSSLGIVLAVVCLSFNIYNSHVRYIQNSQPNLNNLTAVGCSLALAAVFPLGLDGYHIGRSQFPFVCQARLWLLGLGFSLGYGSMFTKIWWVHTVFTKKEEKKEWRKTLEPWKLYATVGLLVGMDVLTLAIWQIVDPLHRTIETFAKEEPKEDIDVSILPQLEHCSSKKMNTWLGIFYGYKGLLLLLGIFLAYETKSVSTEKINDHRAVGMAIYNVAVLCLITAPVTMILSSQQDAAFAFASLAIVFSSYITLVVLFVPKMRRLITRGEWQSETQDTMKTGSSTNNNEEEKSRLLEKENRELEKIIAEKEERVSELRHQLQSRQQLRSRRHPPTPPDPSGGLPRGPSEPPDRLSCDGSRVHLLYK
Procedure: In Vitro [^35S]GTPγS Binding Assay in Rat Cortical Membranes
Cortices of freshly harvested rat brains were dissected on an ice-cold surface and homogenized by a glass Dounce homogeniser immediately in ice-cold buffer containing 50 mM Tris, 5 mM MgCl2 and 1 mM EDTA (pH=7.6). Tissue homogenates were centrifuged at 40000 g for 15 min at 4° C. Membrane pellets were resuspended in the same buffer and membranes were incubated for 10 min at 30° C. in a shaking water bath to eliminate endogenous GABA. Homogenates were centrifuged again under the same conditions. The final pellets were resuspended in ice-cold buffer (pH=7.6) containing 50 mM Tris, 100 mM NaCl, 7 mM MgCl2, 1 mM EDTA and 1 mM dithiotreithol (DTT) to yield a concentration of 20 mg tissue weight/ml and frozen at −70° C. until use. The assay was done in a buffer containing 50 mM Tris (pH=7.4), 100 mM NaCl, 7 mM MgCl2, 1 mM EDTA and 1 mM DTT. Each assay tube contained 150 μL GDP (in a final concentration of 50 μM), 100 μL ligand and 125 μL of the membrane suspension ([…]). The assay tubes were preincubated for 10 min at 30° C. to assure equilibrium. Nonspecific binding was determined in the presence of 10 μM GTPγS; basal binding was determined in the presence of buffer only. After addition of […] [^35S]GTPγS in a volume of 25 μL to the tubes, membranes were incubated for an additional 60 min at 30° C. The assay was terminated by rapid filtration through Packard UniFilter GF/B using a Packard harvester and washed four times with 1 ml ice-cold buffer. After drying the filters at 40° C. for 1 h, 40 μL Microscint (Packard) was added to the filters and radioactivity of the filters was determined by a TopCount NXT (PerkinElmer, Waltham, MA; Alper and Nelson, Eur. J. Pharmacol. 1998, 343, 303-312; Rinken et al, Biochem. Pharmacol. 1999, 57, 155-162). Data thus gathered were used to determine PAM EC50 values for each compound as primary in vitro activity end point.
In Table 1 compounds of this invention measured in the [^35S]GTPγS binding assay are listed.

pEC50 (GABAB receptor)	Compound	also measured
6.00 to 7.00	CC(=O)N1CCC[C@@H](c2cc(C)nc3cc([C@H]4CC[C@H](C(F)(F)F)CC4)nn23)C1 [Example 32]	inhibition in vivo at 3 mg/kg (male Wistar rats): 68%
5.00 to 6.00	COC(=O)N1CCO[C@H](c2cc(C)nc3cc([C@H]4CC[C@H](C(F)(F)F)CC4)nn23)C1 [Example 93]	
5.00 to 6.00	Cc1cc([C@@H]2CN(C=O)CCO2)n2nc([C@H]3CC[C@H](C(F)(F)F)CC3)cc2n1 [Example 94]	
5.00 to 6.00	CCOC(=O)N1CCO[C@H](c2cc(C)nc3cc([C@H]4CC[C@H](C(F)(F)F)CC4)nn23)C1 [Example 95]	
5.00 to 6.00	COC(=O)N1C[C@@H](c2cc(C)nc3cc([C@H]4CC[C@H](C(F)(F)F)CC4)nn23)OC[C@@H]1C [Example 96]	
5.00 to 6.00	Cc1cc([C@@H]2CN(C=O)[C@@H](C)CO2)n2nc([C@H]3CC[C@H](C(F)(F)F)CC3)cc2n1 [Example 98]	
6.00 to 7.00	Cc1cc([C@H]2CN(C(=O)OC(C)C)CCO2)n2nc([C@H]3CC[C@H](C(F)(F)F)CC3)cc2n1 [Example 99]	
6.00 to 7.00	COCCOC(=O)N1CCO[C@@H](c2cc(C)nc3cc([C@H]4CC[C@H](C(F)(F)F)CC4)nn23)C1 [Example 100]	
> 7.00	COC(=O)N1C[C@H](c2cc(C)nc3cc([C@H]4CC[C@H](C(F)(F)F)CC4)nn23)OC[C@@H]1C [Example 102]	
6.00 to 7.00	Cc1cc([C@H]2CN(C=O)[C@@H](C)CO2)n2nc([C@H]3CC[C@H](C(F)(F)F)CC3)cc2n1 [Example 103]	
6.00 to 7.00	COC(=O)N1C[C@H](c2cc(C)nc3cc([C@H]4CC[C@H](C(F)(F)F)CC4)nn23)OC[C@H]1C [Example 106]	
6.00 to 7.00	Cc1cc([C@H]2CN(C=O)[C@H](C)CO2)n2nc([C@H]3CC[C@H](C(F)(F)F)CC3)cc2n1 [Example 108]	
6.00 to 7.00	CC(=O)N1CCO[C@@H](c2cc(C)nc3cc([C@H]4CC[C@H](C(F)(F)F)CC4)nn23)C1 [Example 109]	
5.00 to 6.00	COC(=O)N1C[C@@H](c2cc(C)nc3cc([C@H]4CC[C@H](C(F)(F)F)CC4)nn23)OC[C@H]1C [Example 110]	
6.00 to 7.00	Cc1cc([C@H]2CN(C(=O)c3cnco3)CCO2)n2nc([C@H]3CC[C@H](C(F)(F)F)CC3)cc2n1 [Example 114]	
6.00 to 7.00	Cc1cc([C@H]2CN(C(=O)c3cncs3)CCO2)n2nc([C@H]3CC[C@H](C(F)(F)F)CC3)cc2n1 [Example 118]	
6.00 to 7.00	Cc1cc([C@H]2CN(S(C)(=O)=O)CCO2)n2nc([C@H]3CC[C@H](C(F)(F)F)CC3)cc2n1 [Example 119]	
6.00 to 7.00	Cc1cc([C@H]2CN(S(=O)(=O)N(C)C)CCO2)n2nc([C@H]3CC[C@H](C(F)(F)F)CC3)cc2n1 [Example 120]	
6.00 to 7.00	Cc1cc([C@H]2CN(C(=O)c3cscn3)CCO2)n2nc([C@H]3CC[C@H](C(F)(F)F)CC3)cc2n1 [Example 121]	
6.00 to 7.00	Cc1cc([C@H]2CN(C(=O)c3nnc(C)o3)CCO2)n2nc([C@H]3CC[C@H](C(F)(F)F)CC3)cc2n1 [Example 123]	
≤ 5.00	COC(=O)N1C[C@@H](c2cc(C)nc3cc([C@H]4CC[C@H](C(F)(F)F)CC4)nn23)O[C@@H](C)C1 [Example 124]	
6.00 to 7.00	COC(=O)N1C[C@H](C)O[C@@H](c2cc(C)nc3cc([C@H]4CC[C@H](C(F)(F)F)CC4)nn23)C1 [Example 125]	
6.00 to 7.00	COC(=O)N1CCSC(c2cc(C)nc3cc([C@H]4CC[C@H](C(F)(F)F)CC4)nn23)C1 (stereo partly drawn) [Example 126, methyl 2-{5-methyl-2-[trans-4-(trifluoromethyl)cyclohexyl]pyrazolo[1,5-a]pyrimidin-7-yl}thiomorpholine-4-carboxylate]	

Further lines, the compound ahead of its results:

Compound	pEC50 (GABAB receptor)	also measured
CC(=O)N1CC[C@H](C)[C@H](c2cc(C)nc3c(F)c([C@H]4CC[C@H](C(F)(F)F)CC4)nn23)C1 (racemic) [Example 158]	6.00 to 7.00	inhibition in vivo at 3 mg/kg (male Wistar rats): 35%
COC(=O)N1CC[C@@H](C)[C@H](c2cc(C)nc3cc([C@H]4CC[C@H](C(F)(F)F)CC4)nn23)C1 (single isomer, unassigned) [Example 5]	> 7.00	inhibition in vivo at 1 mg/kg (male Wistar rats): 88%
Cc1cc([C@H]2CN(C=O)CC[C@H]2C)n2nc([C@H]3CC[C@H](C(F)(F)F)CC3)cc2n1 (single isomer, unassigned) [Example 9]	> 7.00	inhibition in vivo at 1 mg/kg (male Wistar rats): 71%
CCc1c(C)nc2cc([C@H]3CC[C@H](C(F)(F)F)CC3)nn2c1[C@@H]1CCCN(C(C)=O)C1 [Example 39]	6.00 to 7.00	inhibition in vivo at 3 mg/kg (male Wistar rats): 33%
CCc1c(C)nc2cc([C@H]3CC[C@H](C(F)(F)F)CC3)nn2c1[C@H]1CCCN(C(C)=O)C1 [Example 42]	> 7.00	inhibition in vivo at 10 mg/kg (male Wistar rats): 91%
CC(=O)N1CCC[C@H](c2c(C)c(C)nc3cc([C@H]4CC[C@H](C(F)(F)F)CC4)nn23)C1 [Example 43]	6.00 to 7.00	inhibition in vivo at 10 mg/kg (male Wistar rats): 41%
COC(=O)N1CCC[C@@H](c2c(C)c(C)nc3cc([C@H]4CC[C@H](C(F)(F)F)CC4)nn23)C1 [Example 47]	6.00 to 7.00	inhibition in vivo at 10 mg/kg (male Wistar rats): 63%
Cc1nc2cc([C@H]3CC[C@H](C(F)(F)F)CC3)nn2c([C@@H]2CN(C=O)CC[C@@H]2C)c1C [Example 58]	> 7.00	inhibition in vivo at 1 mg/kg (male Wistar rats): 44%
CCc1c(C)nc2cc([C@H]3CC[C@H](C(F)(F)F)CC3)nn2c1[C@@H]1CN(C(C)=O)CC[C@@H]1C [Example 66]	> 7.00	inhibition in vivo at 1 mg/kg (male Wistar rats): 49%
Cc1cc([C@H]2CN(C=O)CC[C@@H]2C)n2nc([C@H]3CC[C@H](C(F)(F)F)CC3)cc2n1 [Example 68]	> 7.00	inhibition in vivo at 1 mg/kg (male Wistar rats): 39%
Cc1nc2cc([C@H]3CC[C@H](C(F)(F)F)CC3)nn2c(C2CN(C=O)CC(F)(F)C2)c1C (some centres unmarked) [Example 75]	> 7.00	inhibition in vivo at 1 mg/kg (male Wistar rats): 19%
Cc1cc([C@H]2CCCN(C=O)[C@@H]2C)n2nc([C@H]3CC[C@H](C(F)(F)F)CC3)cc2n1 [Example 89]	6.00 to 7.00	
COC(=O)N1CCS(=O)(=O)[C@@H](c2cc(C)nc3cc([C@H]4CC[C@H](C(F)(F)F)CC4)nn23)C1 [Example 90]	≤ 5.00	
COC(=O)N1CCC[C@H](c2cc(C)nc3cc([C@H]4CC[C@H](C(F)(F)F)CC4)nn23)[C@@H]1C [Example 97]	6.00 to 7.00	
Cc1cc(C2CCCN(C)C2=O)n2nc([C@H]3CC[C@H](C(F)(F)F)CC3)cc2n1 (some centres unmarked) [Example 105]	5.00 to 6.00	
CCOC(=O)N1CCC[C@H](c2cc(C)nc3cc([C@H]4CC[C@H](C(F)(F)F)CC4)nn23)[C@@H]1C [Example 107]	5.00 to 6.00	
COC(=O)N1C[C@@H](c2cc(C)nc3cc([C@H]4CC[C@H](C(F)(F)F)CC4)nn23)OC[C@@H]1C(C)C [Example 122]	6.00 to 7.00	
COC(=O)N1C[C@H](c2cc(C)nc3cc([C@H]4CC[C@H](C(F)(F)F)CC4)nn23)OC[C@@H]1C(C)C [Example 127]	6.00 to 7.00	
COC(=O)N1CC[C@@H](C)[C@H](c2cc(C)nc3c(F)c([C@H]4CC[C@H](C(F)(F)F)CC4)nn23)C1 [Example 128]	5.00 to 6.00	
COC(=O)N1CC[C@H](C)[C@@H](c2cc(C)nc3c(F)c([C@H]4CC[C@H](C(F)(F)F)CC4)nn23)C1 [Example 129]	6.00 to 7.00	
COC(=O)N1CCO[C@H](c2cc(C)nc3c(F)c([C@H]4CC[C@H](C(F)(F)F)CC4)nn23)C1 [Example 130]	6.00 to 7.00	
